Results on 1 compound are retold here after ChEMBL document CHEMBL1255236, “Hepatotoxicity observed in clinical trials of aplaviroc (GW873140)” (Antimicrob Agents Chemother, 2008).

In general, AUC refers to the area under the concentration-time curve, a measure of exposure. For orientation: half-life means the time in which the quantity being followed falls by half.

The structures appear in SMILES notation.

A short description of data set [1]: AUC (0 to 24 hrs) in Human immunodeficiency virus 1 infected human at 800 mg/kg, QD. In kind it is ADME, organism-based. Details: time < 24 hr, dose 800 mg/kg. The following applies: plasma.
In data set [2] the test system is Human immunodeficiency virus 1. Description: Antiviral activity against Human immunodeficiency virus 1 infected in human assessed as log reduction in HIV-1 RNA level at 600 mg/kg, BID after 10 days. In kind it is functional.
Data set [3] in a line: Half life in healthy human at 200 to 800 mg/kg, BID. In kind it is ADME, organism-based. Details: dose 200-800 mg/kg. To be noted: in vivo.
For data set [4], the system named is Monkey. In words: Hepatotoxicity in monkey assessed as increase in liver ALT level at 2000 mg/kg/day. In kind it is toxicity, organism-based. To be noted: cercopithecidae, in vivo.
Data set [5] is described as follows: AUC (0 to 24 hrs) in Human immunodeficiency virus 1 infected human at 800 mg/kg, BID. In kind it is ADME, organism-based. To be noted: plasma. Details: time < 24 hr, dose 800 mg/kg.
Data set [6] deals with Rattus norvegicus. In words: Hepatotoxicity in rat assessed as increase in liver bilirubin level at >500 mg/kg/day. In kind it is toxicity, organism-based. The following applies: in vivo.
Data set [7] has as its system Rattus norvegicus. In words: Hepatotoxicity in rat assessed as increase in liver ALT level at >500 mg/kg/day. In kind it is toxicity, organism-based. To be noted: in vivo.
Data set [8] can be described thus: AUC (0 to 24 hrs) in Human immunodeficiency virus 1 infected human at 600 mg/kg, BID. In kind it is ADME, organism-based. Details: time < 24 hr, dose 600 mg/kg. The following applies: plasma.
Data set [9] can be described thus: AUC (0 to 24 hrs) in Human immunodeficiency virus 1 infected human at 200 mg/kg, BID. To be noted: plasma. Details: time < 24 hr, dose 200 mg/kg. In kind it is ADME, organism-based.
A short description of data set [10]: AUC (0 to 24 hrs) in Human immunodeficiency virus 1 infected human at 400 mg/kg, BID. In kind it is ADME, organism-based. Details: time < 24 hr, dose 400 mg/kg. To be noted: plasma.

For the compound `CCCCN1C(=O)[C@@H]([C@H](O)C2CCCCC2)NC(=O)C12CCN(Cc1ccc(Oc3ccc(C(=O)O)cc3)cc1)CC2` [APLAVIROC], the AUC at 24 h stood at 5840 ng·h/mL in data set [1]; 3410 ng·h/mL in data set [5]; 2100 ng·h/mL in data set [8]; 2010 ng·h/mL in data set [9]; 6060 ng·h/mL in data set [10]. Besides, the FC in data set [2] is reported as 1.66. In data set [3], the half-life is 3 h. Besides, the Activity entry in data set [4] was “Non-toxic”; in [6], “Toxic”; in data set [7], “Toxic”.
